Tests used:
Type in all cases: in vivo
[1] = tested on: barnyardgrass (Echinochloa crus-galli); assay: Test B pre-/postemergence plant response
In short: (§1)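 Seeds in loam–sand blend given preemergence soil spray; separately, plants at one- to two-leaf stage (2–10 cm) sprayed postemergence, compounds in non-phytotoxic solvent with surfactant. Injury rated visually versus untreated controls after ~10 days in greenhouse, 0 (no effect) to 100 (complete control).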

[2] = tested on: corn (Zea mays); assay: Test B pre-/postemergence plant response; settings: 0 to 100 scale, 0 no effect, 100 complete control
In short: as §1

[3] = tested on: giant foxtail (Setaria faberii); assay: Test B pre-/postemergence plant response
In short: as §1

[4] = tested on: pigweed (Amaranthus retroflexus); assay: Test B pre-/postemergence plant response
In short: as §1

[5] = tested on: wheat (Triticum aestivum); assay: Test B pre-/postemergence plant response; settings: 0 to 100 scale, 0 no effect, 100 complete control
In short: as §1

[6] = tested on: Italian ryegrass (Lolium multiflorum); assay: Test D pre-/postemergence plant response
In short: (§2)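 Preemergence: seeds in loam/sand blend treated with test chemicals in non-phytotoxic solvent with surfactant; postemergence: plants at 2–18 cm (1- to 4-leaf stage) in peat-based medium sprayed likewise. Greenhouse 13 to 15 days, then visual rating vs controls, 0 (no effect) to 100 (complete control).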

[7] = tested on: barnyardgrass (Echinochloa crus-galli); assay: Test D pre-/postemergence plant response
In short: as §2

[8] = tested on: blackgrass (Alopecurus myosuroides); assay: Test D pre-/postemergence plant response
In short: as §2

[9] = tested on: corn (Zea mays); assay: Test D pre-/postemergence plant response
In short: as §2

[10] = tested on: galium (catchweed bedstraw, Galium aparine); assay: Test D pre-/postemergence plant response
In short: as §2

[11] = tested on: giant foxtail (Setaria faberii); assay: Test D pre-/postemergence plant response
In short: as §2

[12] = tested on: lambsquarters (Chenopodium album); assay: Test D pre-/postemergence plant response
In short: as §2

[13] = tested on: morningglory (Ipomoea coccinea); assay: Test D pre-/postemergence plant response
In short: as §2

[14] = tested on: pigweed (Amaranthus retroflexus); assay: Test D pre-/postemergence plant response
In short: as §2

[15] = tested on: ragweed (common ragweed, Ambrosia elatior); assay: Test D pre-/postemergence plant response
In short: as §2

[16] = tested on: waterhemp (common waterhemp, Amaranthus rudis); assay: Test D pre-/postemergence plant response
In short: as §2

[17] = 31 g ai/ha, Postemergence, 0 to 100 scale, 0 no effect, 100 complete control
[18] = 31 g ai/ha, Preemergence, 0 to 100 scale where 0 is no effect and 100 is complete control
[19] = 125 g ai/ha, postemergence, 0 to 100 scale, 0 no effect, 100 complete control
[20] = Preemergence, 125 g ai/ha, 0 to 100 scale where 0 is no effect and 100 is complete control
[21] = Postemergence, 16 g ai/ha, scale 0 to 100 (0 no effect, 100 complete control)
[22] = Postemergence, 31 g ai/ha, scale 0 to 100 (0 no effect, 100 complete control)
[23] = Postemergence, 62 g ai/ha, scale 0 to 100, 0 no effect, 100 complete control
[24] = Postemergence, 125 g ai/ha, scale 0 to 100, 0 no effect, 100 complete control
[25] = Preemergence, 16 g ai/ha, scale 0 to 100 (0 no effect, 100 complete control)
[26] = Preemergence, 31 g ai/ha, scale 0 to 100 (0 no effect, 100 complete control)
[27] = Preemergence, 62 g ai/ha, scale 0 to 100 (0 no effect, 100 complete control)

Fc1cccc(Oc2ncc(Br)cn2)c1-c1cc(C(F)F)on1 [Compound 118]
Plant response rating, Barnyardgrass [1, 17]: 70
Plant response rating, Barnyardgrass [1, 18]: 70
Plant response rating, Barnyardgrass [1, 19]: 100
Plant response rating, Barnyardgrass [1, 20]: 100
Plant response rating, Corn ([2]; 31 g ai/ha, Postemergence): 50
Plant response rating, Corn ([2]; 125 g ai/ha, postemergence): 100
Plant response rating, Foxtail, Giant [3, 17]: 90
Plant response rating, Foxtail, Giant [3, 18]: 100
Plant response rating, Foxtail, Giant [3, 19]: 100
Plant response rating, Foxtail, Giant [3, 20]: 100
Plant response rating, Pigweed [4, 17]: 100
Plant response rating, Pigweed [4, 18]: 100
Plant response rating, Pigweed [4, 19]: 100
Plant response rating, Wheat ([5]; 31 g ai/ha, Postemergence): 20
Plant response rating, Wheat ([5]; 125 g ai/ha, postemergence): 60
Ryegrass, Italian plant response rating [6, 21]: 0
Ryegrass, Italian plant response rating [6, 22]: 0
Plant response rating, Ryegrass, Italian [6, 23]: 5
Plant response rating, Ryegrass, Italian [6, 24]: 5
Plant response rating (scale 0 to 100), Ryegrass, Italian ([6]; Preemergence, 125 g ai/ha): 60
Plant response rating, Ryegrass, Italian [6, 25]: 0
Plant response rating, Ryegrass, Italian [6, 26]: 5
Plant response rating, Ryegrass, Italian [6, 27]: 65
Barnyardgrass plant response rating [7, 21]: 10
Barnyardgrass plant response rating [7, 22]: 20
Plant response rating, Barnyardgrass [7, 23]: 20
Plant response rating, Barnyardgrass [7, 24]: 30
Plant response rating (scale 0 to 100), Barnyardgrass ([7]; Preemergence, 62 g ai/ha): 100
Plant response rating (scale 0 to 100), Barnyardgrass ([7]; Preemergence, 125 g ai/ha): 100
Plant response rating, Barnyardgrass [7, 25]: 10
Plant response rating, Barnyardgrass [7, 26]: 60
Blackgrass plant response rating [8, 21]: 5
Blackgrass plant response rating [8, 22]: 10
Plant response rating, Blackgrass [8, 23]: 15
Plant response rating, Blackgrass [8, 24]: 35
Plant response rating (scale 0 to 100), Blackgrass ([8]; Preemergence, 125 g ai/ha): 90
Plant response rating, Blackgrass [8, 25]: 0
Plant response rating, Blackgrass [8, 26]: 10
Plant response rating, Blackgrass [8, 27]: 60
Corn plant response rating [9, 21]: 5
Corn plant response rating [9, 22]: 10
Plant response rating, Corn [9, 23]: 15
Plant response rating, Corn [9, 24]: 15
Plant response rating (scale 0 to 100), Corn ([9]; Preemergence, 125 g ai/ha): 30
Plant response rating, Corn [9, 25]: 0
Plant response rating, Corn [9, 26]: 5
Plant response rating, Corn [9, 27]: 30
Galium plant response rating [10, 21]: 85
Galium plant response rating [10, 22]: 90
Plant response rating, Galium [10, 23]: 90
Plant response rating, Galium [10, 24]: 98
Plant response rating (scale 0 to 100), Galium ([10]; Preemergence, 125 g ai/ha): 95
Plant response rating, Galium [10, 25]: 60
Plant response rating, Galium [10, 26]: 98
Plant response rating, Galium [10, 27]: 95
Foxtail, Giant plant response rating [11, 21]: 5
Foxtail, Giant plant response rating [11, 22]: 15
Plant response rating, Foxtail, Giant [11, 23]: 10
Plant response rating, Foxtail, Giant [11, 24]: 20
Plant response rating (scale 0 to 100), Foxtail, Giant ([11]; Preemergence, 125 g ai/ha): 100
Plant response rating, Foxtail, Giant [11, 25]: 98
Plant response rating, Foxtail, Giant [11, 26]: 100
Plant response rating, Foxtail, Giant [11, 27]: 100
Lambsquarters plant response rating [12, 21]: 75
Lambsquarters plant response rating [12, 22]: 85
Plant response rating, Lambsquarters [12, 23]: 90
Plant response rating, Lambsquarters [12, 24]: 95
Plant response rating (scale 0 to 100), Lambsquarters ([12]; Preemergence, 125 g ai/ha): 98
Plant response rating, Lambsquarters [12, 25]: 90
Plant response rating, Lambsquarters [12, 26]: 90
Plant response rating, Lambsquarters [12, 27]: 95
Morningglory plant response rating [13, 21]: 85
Morningglory plant response rating [13, 22]: 85
Plant response rating, Morningglory [13, 23]: 85
Plant response rating, Morningglory [13, 24]: 80
Plant response rating (scale 0 to 100), Morningglory ([13]; Preemergence, 125 g ai/ha): 90
Plant response rating, Morningglory [13, 25]: 30
Plant response rating, Morningglory [13, 26]: 5
Plant response rating, Morningglory [13, 27]: 85
Pigweed plant response rating [14, 21]: 80
Pigweed plant response rating [14, 22]: 95
Plant response rating, Pigweed [14, 23]: 95
Plant response rating, Pigweed [14, 24]: 98
Plant response rating (scale 0 to 100), Pigweed ([14]; Preemergence, 125 g ai/ha): 100
Plant response rating, Pigweed [14, 25]: 100
Plant response rating, Pigweed [14, 26]: 100
Plant response rating, Pigweed [14, 27]: 100
Ragweed plant response rating [15, 21]: 80
Ragweed plant response rating [15, 22]: 45
Plant response rating, Ragweed [15, 23]: 55
Plant response rating, Ragweed [15, 24]: 85
Plant response rating (scale 0 to 100), Ragweed ([15]; Preemergence, 125 g ai/ha): 85
Plant response rating, Ragweed [15, 25]: 85
Plant response rating, Ragweed [15, 26]: 20
Plant response rating, Ragweed [15, 27]: 70
Waterhemp plant response rating [16, 21]: 85
Waterhemp plant response rating [16, 22]: 90
Plant response rating, Waterhemp [16, 23]: 95
Plant response rating, Waterhemp [16, 24]: 98
Plant response rating (scale 0 to 100), Waterhemp ([16]; Preemergence, 125 g ai/ha): 100
Plant response rating, Waterhemp [16, 25]: 100
Plant response rating, Waterhemp [16, 26]: 100
Plant response rating, Waterhemp [16, 27]: 100
